Data: publication PMC12042267, “Expanding the Family of Monosubstituted 15-Membered Pyridine-Based Macrocyclic Ligands for Mn(II) Complexation in the Context of MRI” (Inorganic Chemistry, 2025)

Assays:
Format in all cases: physicochemical
[1] = Ligand protonation constants by pH-potentiometric titration; details: I = 0.15 M NaCl; 25 °C
Method: (§1) Metal stock solutions were prepared from the highest analytical grade chemicals, and their concentration was determined by complexometric titration with standardized Na2H2EDTA, using xylenol orange indicator in the presence of urotropine buffer (ZnCl2 and MnCl2); Eriochrome black T indicator in the presence of ammonium acetate buffer (CaCl2) or murexide indicator in ammonium solution (CuCl2). The concentration of the ligand stock solutions was determined by pH-potentiometric titrations (the difference between two consecutive inflection points of the ligand titration curve corresponds to two (L2) or one (L3) ligand equivalents). To determine the protonation constants of the ligand and stability constants of the metal complexes with selected divalent metal ions, pH-potentiometric titrations were carried out with 0.1 M NaOH at 2 mM ligand concentration, in the absence (for ligand protonation constants) or in the presence of one equivalent of metal ion (for stability constants). During the titration, the waiting time was 2 min between successive points (V0 = 5 mL). The temperature (25.0 ± 0.1 °C) was controlled by a circulating water bath. The ionic strength was set to I = 0.15 M NaCl. All titrations were performed under a nitrogen atmosphere to avoid the effect of CO2. Titrations were carried out in the pH range from 1.8 (L3) or 2.0 (L2) (after the addition of 1 M HCl solution to the starting ligand solution in the titration cell) to pH 11 (or until precipitation of the metal hydroxide). All pH-potentiometric titrations were performed using a 785 DMP Titrino titration workstation with a combined electrode (Metrohm). The p[H] (p[H] = −log[H+], concentration in molarity) was measured in each titration with a combined pH glass electrode (Metrohm) filled with 3 M KCl. The electrode was calibrated in hydrogen ion concentration by titration of HCl with KOH in 0.1 M electrolyte solution.[37] A plot of potential versus p[H] allows determination of the electrode standard potential (E°) and the slope factor (f).
The protonation constants of the ligand (log Ki^H) are defined as follows [drawing 1] where i = 1, 2, ··· and [Hi–1L] and [H^+] are the equilibrium concentrations of the ligand (i = 1), its protonated forms (i = 2, ···), and the hydrogen ion. The stability (KML) and the protonation (KMHiL) constants for the metal complexes are defined as follows [drawing 2] [drawing 3] For the calculations of the equilibrium constants, the HYPERQUAD program was used.[38] The number of fitted data pairs was between 190 and 240. The ionic product of water at 25 °C and 0.1 M ionic strength is pKw = 13.77.[39] Fixed values were used for pKw, ligand acidity constants, and total concentrations of metal, ligand, and acid. […]

[2] = Stability constants of Zn(II) complexes by pH-potentiometry; details: I = 0.15 M NaCl, 25 °C
Method: as §1
(§2) The protonation constants of the ligand (log Ki^H) are defined as follows [drawing 1] where i = 1, 2, ··· and [Hi–1L] and [H^+] are the equilibrium concentrations of the ligand (i = 1), its protonated forms (i = 2, ···), and the hydrogen ion. The stability (KML) and the protonation (KMHiL) constants for the metal complexes are defined as follows [drawing 2] [drawing 3] For the calculations of the equilibrium constants, the HYPERQUAD program was used.[38] The number of fitted data pairs was between 190 and 240. The ionic product of water at 25 °C and 0.1 M ionic strength is pKw = 13.77.[39] Fixed values were used for pKw, ligand acidity constants, and total concentrations of metal, ligand, and acid. All values and errors (one standard deviation) reported are at least the average of two independent experiments.

[3] = Stability constants of Ca(II) complexes by pH-potentiometry; details: I = 0.15 M NaCl, 25 °C
Method: as §1, §2

[4] = Stability constants of Cu(II) complexes by pH-potentiometry; details: I = 0.15 M NaCl, 25 °C
Method: as §1, §2

[5] = Dissociation kinetics of Mn(II) complexes, transmetalation with Zn(II) (T2 relaxation); details: Zn(II) transmetalation, 25 °C, 0.15 M NaCl, pH 4.9–6.0
Method: The transmetalation reaction of MnL2 and MnL3 (1.4 mM) was monitored in the presence of 10, 20, 30, and 40 mol equiv of Zn(II) ions, by measuring water proton T2 relaxation times (60 MHz) as a function of time at 25 °C and in 0.15 M NaCl, in the pH range 4.9–6.0 (4.9, 5.0, 5.2, 5.5, and 6.0). To control pH, 50 mM N-methyl-piperazine (pH 4.9–5.5) or 50 mM MES (2-(4-morpholino)ethane-sulfonic acid) buffer (pH 5.7–6.0) was used. Transmetalation of MnL2 (0.3 mM) was also investigated in the presence of 10, 20, 30, and 40 mol equiv of Cu(II) ions, by monitoring the UV–vis absorbance at 274.0 nm as a function of time at 25 °C and in 0.15 M NaCl, in the pH range 4.7–5.0 (in 75 mM 1,4-dimethyl piperazine (DMP) buffer). No oxidation of the samples was observed. The program OriginPro 9 was used for the fitting of experimental data.
The dissociation kinetics was followed through monitoring Mn(II) release by water proton T2 measurements, at pH […], in the presence of 10- to 40-fold excess of Zn(II) and through UV–vis measurements in the presence of 10- to 40-fold excess of Cu(II) at pH 4.7–5.0 (only for MnL2). The observed dissociation rate constants, kobs, increase with increasing H^+ ion concentration (Figures 4, left and S20). They remain independent of Zn(II) concentration (Figures S18 and S19), but do show dependence on Cu(II) concentration (Figure S21).
In excess of the exchanging metal ion, the reaction is of pseudo-first order, and the rate is proportional to the total MnL2 or MnL3 concentration (eq 1), where kobs is the pseudo-first-order rate constant. [drawing 4] 1 In general, different dissociation pathways can coexist, implying the participation of protons and/or the exchanging metal ion,[47] as illustrated in Figure 5.
Based on this scheme, the overall rate for either Zn(II) or Cu(II) transmetalation can be given by eq 2, where M = Zn^2+ or Cu^2+ (for clarity, charges of the complexes are omitted). [drawing 5] 2 Here, the first and second terms correspond to the spontaneous dissociation of the nonprotonated and the monoprotonated complexes, respectively, the third term describes the proton-assisted dissociation of the monoprotonated complex, and the last two terms refer to the spontaneous dissociation of the dinuclear complex and metal-assisted dissociation of the monoprotonated MnL2 or MnL3 complex. [MnL]tot describes the total concentration of Mn(II) chelates ([MnL]tot = [MnL] + [MnHL] + [ZnLMn]). Since no obvious Zn(II) dependence (for any of the two systems) was observed, only the spontaneous and proton-assisted dissociation pathways were taken into consideration. Consequently, the observed rate constants can be expressed as in eq 3 with k0 = kMnL, k1 = kMnHL·KMnHL, and k2 = ^HkMnHL·KMnHL. [drawing 6] 3 The kobs rate constants were fitted to eq 3, and the calculated parameters are listed in Table 5 for the Zn(II) exchange. During the fitting procedure, KMnHL was fixed to the value obtained from the pH-potentiometric titrations.

[6] = Stability constants of Mn(II) complexes by pH-potentiometry, pMn and species distribution; details: for log KML / log KML(OH): Mn(II), I = 0.15 M NaCl, 25 °C; for pMn: pMn = −log[Mn(II)]free at pH 7.4, cMn = clig = 10^–5 M
Method: as §1, §2
To obtain further information about the impact of a given pendant arm, it is interesting to calculate pMn values (pMn = −log[Mn(II)]free at pH 7.4, cMn = clig= 10^–5 M) which provide a more direct comparison of MnL stabilities, independently of differences in protonation constants (Table 4). […] Nevertheless, the too large, 15-membered macrocyclic cavity combined with a lower number of pendant arms provide ca. 2 orders of magnitude lower stability for Mn(II) complexation as compared to the 12-membered pyclen derivatives (Table 4).

log K2^H [1]	log K3^H [1]	log KHML [2]	log KML [2]	log KML(OH) [2]	log KH2ML [3]	log KHML [3]	log KML [3]	log KML [4]	log KML(OH) [4]	log KML [6]	log KML(OH) [6]	pMn [6]	log KML(OH) [3]	log KHML [4]	SMILES	k0 (spontaneous dissociation of the nonprotonated complex) [5]	k1 (spontaneous dissociation of the monoprotonated complex) [5]	k2 (proton-assisted dissociation of the monoprotonated complex) [5]
7.14(1)	2.1(1)	2.99(2)	13.36(1)	-10.97(2)	6.63(9)	7.23(7)	4.11(4)	16.57(8)	-10.78(8)	10.25(1)	-10.89(3)	6.93	–	–	c1ccc(CN2CCOCCOCCNCc3cccc(n3)C2)nc1 [L2]	(1.1 ± 0.3) × 10^–3 s^–1	737 ± 110 M^–1 s^–1	(4.5 ± 0.8) × 10^7 M^–2 s^–1
5.85(1)	1.98(1)	2.09(6)	12.09(1)	-9.33(2)	–	6.72(6)	3.53(1)	16.91(2)	-7.9(1)	9.74(1)	-9.78(1)	6.80	-10.93(1)	2.1(4)	c1cc2nc(c1)CN(Cc1nc3ccccc3[nH]1)CCOCCOCCNC2 [L3]	(1.9 ± 0.3) × 10^–3 s^–1	912 ± 41 M^–1 s^–1	–
